Assay results reported in patent publication US5945325A, “Thermally stable para-nitrobenzyl esterases” (priority 1998, dated 1999).
Where two headings read alike, the source gives them in different places.

Legend:
Assay in all cases: Kinetic assays of purified pNB esterase on ester substrates in DMF/PIPES
Format in all cases: biochemical
[1] = molecular target: T1, Bacillus subtilis para-nitrobenzyl esterase variant 1-1H9 (incl. Tyr 370 Phe), SEQ. ID. NO. 4 (Bacillus subtilis, UniProt P37967, form not given/H322R/Y370F); settings: 0% DMF, 0.1 M PIPES pH 7.0, 30° C.
[2] = molecular target: T1, Bacillus subtilis para-nitrobenzyl esterase variant 1-1H9 (incl. Tyr 370 Phe), SEQ. ID. NO. 4; settings: 0.1 M PIPES pH 7.0, 30° C.
Protocol: (§1) FIG. 8a is a plot of variant and wild type pNB esterase reaction kinetics on pNPA in aqueous buffer (0% dimethylformamide). Enzymes were added to a 30° C. reaction solution consisting of 0.1 M PIPES (pH 7.0) and varying concentrations of pNPA.
(§2) FIG. 8b is a plot of variant and wild type pNB esterase reaction kinetics on pNPA in 15% DMF. Enzymes were added to a 30° C. reaction solution consisting of 0.1 M PIPES (pH 7.0), 15% DMF, and varying concentrations of pNPA.
(§3) FIG. 8c is a plot of variant and wild type pNB esterase reaction kinetics on pNPA in 30% DMF. Enzyme were added to a 30° C. reaction solution consisting of 0.1 M PIPES (pH 7.0), 30% DMF, and varying concentrations of pNPA.
(§4) FIG. 9a is a plot of variant wild type pNB esterase kinetics on LCN-pNP in 1% DMF. Enzymes listed were added to a 30° C. reaction solution consisting of 0.1 M PIPES (pH 7.0), 1% DMF, and varying concentrations of LCN-pNP.
(§5) FIG. 9b is a plot of variant and wild type pNB esterase reaction kinetics on LCN-pNP in 15% DMF. Enzymes were added to a 30° C. reaction solution consisting of 0.1 M PIPES (pH 7.0), 15% DMF, and varying concentrations of LCN-pNP.
(§6) FIG. 9c is a plot of variant and wild type pNB esterase reaction kinetics on LCN-pNP in 30% DMF. Enzymes were added to a 30° C. reaction solution consisting of 0.1 M PIPES (pH 7.0), 30% DMF, and varying concentrations of LCN-pNP.
(§7) FIG. 10a is a plot of variant and wild type pNB esterase reaction kinetics on LCN-pNB in 1% DMF. Enzymes were added to a 30° C. reaction solution consisting of 0.1 M PIPES (pH 7.0), 1% DMF, and varying concentrations of LCN-pNB.
(§8) FIG. 10b is a plot of variant and wild type pNB esterase reaction kinetics on LCN-pNB in 15% DMF. Enzyme were added to a 30° C. reaction solution consisting of 0.1 M PIPES (pH 7.0), 15% DMF, and varying concentrations of LCN-pNB.
Bacteria expressing seven pNB esterases, O-WT (SEQ. ID. NO. 2), 1-1H9, 2-19E10, 3-10C4, 4-38B9, 4-43E7, and 4-54B9, were grown in on cultures, and the enzymes were purified. These purified enzymes were assayed for their ability to hydrolyze the different ester substrates in the presence of various concentrations of DMF.
Kinetic assays were performed on three substrates: pNPA, LCN-pNP, and p-nitrobenzyl loracarbef nucleus (LCN-pNB). For pNPA and LCN-pNP substrates, final concentrations varying from 0.0625 mM to 16 mM and 0, 15, and 30% DMF in 0.1 M PIPES (pH 7.0) were combined with equal volumes of enzyme samples. These samples were mixed simultaneously in a 96 well plate and monitored with the 96 well plate reader. The absorbance values were recorded, linearly regressed, and then used for calculating kinetic parameters. For the LCN-pNB substrate, final concentrations varying from 0.0156 mM to 8.0 mM and 0, 15 and 30% DMF in PIPES (pH 7.0) were combined with enzyme samples in a quartz cuvette and were measured in a spectrophotometer at 289 nm. All assays were measured in triplicate.

[3] = molecular target: Bacillus subtilis para-nitrobenzyl esterase variant 4-38B9 (3-10C4 plus Ile 60 Val), SEQ. ID. NO. 10 (Bacillus subtilis, UniProt P37967, form not given/H322R/I60V/L144M/M358V/Y370F); settings: 0.1 M PIPES pH 7.0, 30° C.
Protocol: as §1, §2, §3, §4, §5, §6, §7, §8
(§9) Bacteria expressing seven pNB esterases, O-WT (SEQ. ID. NO. 2), 1-1H9, 2-19E10, 3-10C4, 4-38B9, 4-43E7, and 4-54B9, were grown in on cultures, and the enzymes were purified. These purified enzymes were assayed for their ability to hydrolyze the different ester substrates in the presence of various concentrations of DMF. FIGS. 8a, b and c show the specific reaction rates on pNPA as a function of pNPA substrate concentration for this series of evolved variants from the four generations of mutagenesis and screening. […] The wild type enzyme outperforms 1-1H9 in purely aqueous buffer (FIG. 8a). The actual screening, however, was performed in the presence of DMF, and in 15 and 30% DMF, 1-1H9 has higher specific activity towards pNPA than wild type (FIGS. 8b and 8c). Similar trends are seen for the remaining variants assayed on this substrate. […] In 30% DMF, wild type drops still further relative to the pNB esterase variants. Variants 4-38B9 and 4-43E7, presumably by virtue of having been screened in DMF for four rounds of mutagenesis, are the best performers in 30% DMF.
(§10) DMF dramatically increases KM while also decreasing kcat. For the LCN substrates, the mutations accumulated during directed evolution mitigate the increased KM. […] At substrate concentrations […], increased specific activity will result mainly from improvements in kcat. These improvements are the most useful for enzymes intended to be used for transformations in high substrate concentrations.
(§11) Kinetic assays were performed on three substrates: pNPA, LCN-pNP, and p-nitrobenzyl loracarbef nucleus (LCN-pNB). For pNPA and LCN-pNP substrates, final concentrations varying from 0.0625 mM to 16 mM and 0, 15, and 30% DMF in 0.1 M PIPES (pH 7.0) were combined with equal volumes of enzyme samples. These samples were mixed simultaneously in a 96 well plate and monitored with the 96 well plate reader. The absorbance values were recorded, linearly regressed, and then used for calculating kinetic parameters. […]

[4] = molecular target: Bacillus subtilis para-nitrobenzyl esterase variant 4-54B9 (3-10C4 plus Leu 334 Ser and one more substitution), SEQ. ID. NO. 14 (Bacillus subtilis, UniProt P37967, form not given/H322R/K267R/L144M/L334S/M358V/Y370F); settings: for kcat (p-nitrophenyl loracarbef nucleus) / Km / kcat (p-nitrobenzyl loracarbef nucleus): 0.1 M PIPES pH 7.0, 30° C.
Protocol: as §1, §2, §3, §4, §5, §6, §7, §8, §9, §10, §11

[5] = molecular target: Bacillus subtilis para-nitrobenzyl esterase (pNB esterase), wild type 0-WT, SEQ. ID. NO. 2 (Bacillus subtilis, UniProt P37967); settings: 0.1 M PIPES pH 7.0, 30° C.
Protocol: as §1, §2, §3, §4, §5, §6, §7, §8, §9, §10, §11

[6] = molecular target: Bacillus subtilis para-nitrobenzyl esterase variant 3-10C4 (2-19E10 plus Leu 144 Met), SEQ. ID. NO. 8 (Bacillus subtilis, UniProt P37967, form not given/H322R/L144M/M358V/Y370F); settings: 0.1 M PIPES pH 7.0, 30° C.
Protocol: as §1, §2, §3, §4, §5, §6, §7, §8, §9, §10, §11

[7] = molecular target: Bacillus subtilis para-nitrobenzyl esterase variant 4-43E7 (3-10C4 plus Leu 334 Val and one more substitution), SEQ. ID. NO. 12 (Bacillus subtilis, UniProt P37967, form not given/H322R/L144M/L334V/M358V/S94G/Y370F); settings: 0.1 M PIPES pH 7.0, 30° C.
Protocol: as §1, §2, §3, §4, §5, §6, §7, §8, §9, §10, §11

[8] = molecular target: Bacillus subtilis para-nitrobenzyl esterase variant 2-19E10 (1-1H9 substitutions plus Met 358 Val), SEQ. ID. NO. 6 (Bacillus subtilis, UniProt P37967, form not given/H322R/M358V/Y370F); settings: 0.1 M PIPES pH 7.0, 30° C.
Protocol: as §1, §2, §3, §4, §5, §6, §7, §8, §9, §10, §11

[9] = 15% DMF, read-out: Km (p-nitrophenyl loracarbef nucleus)
[10] = 30% DMF, read-out: Km (p-nitrophenyl loracarbef nucleus)
[11] = 0% DMF, read-out: Km (p-nitrophenyl loracarbef nucleus)
[12] = 15% DMF, read-out: Km (p-nitrobenzyl loracarbef nucleus)
[13] = 0% DMF, read-out: Km (p-nitrobenzyl loracarbef nucleus)
[14] = 15% DMF, on LCN-pNB, relative to wild type

Chain of Bacillus subtilis para-nitrobenzyl esterase variant 2-19E10 (1-1H9 substitutions plus Met 358 Val), SEQ. ID. NO. 6 (P37967 whole entry K23L/S59P/K95Q/N150D/S230A/G242S/K246R/S251A/A291S/H322R/V343A/M358V/Y370F/K390E/L463V, form open): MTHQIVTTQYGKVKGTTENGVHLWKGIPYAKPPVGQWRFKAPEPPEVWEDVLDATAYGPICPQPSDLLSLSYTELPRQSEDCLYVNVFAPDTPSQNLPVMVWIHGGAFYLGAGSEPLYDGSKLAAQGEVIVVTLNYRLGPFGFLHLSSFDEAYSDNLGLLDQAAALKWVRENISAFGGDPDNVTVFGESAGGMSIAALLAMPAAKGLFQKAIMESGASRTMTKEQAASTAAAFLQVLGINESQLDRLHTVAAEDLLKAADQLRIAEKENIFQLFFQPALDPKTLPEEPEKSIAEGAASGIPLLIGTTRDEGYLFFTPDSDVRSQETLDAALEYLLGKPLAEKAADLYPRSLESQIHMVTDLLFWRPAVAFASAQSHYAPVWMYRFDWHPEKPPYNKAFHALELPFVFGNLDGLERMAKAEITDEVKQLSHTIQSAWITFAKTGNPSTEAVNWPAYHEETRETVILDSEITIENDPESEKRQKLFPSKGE
Chain of Bacillus subtilis para-nitrobenzyl esterase variant 4-43E7 (3-10C4 plus Leu 334 Val and one more substitution), SEQ. ID. NO. 12 (P37967 other isoform, or with tags, fused parts or gaps with the stated changes, form open): as the sequence (P37967 whole entry K23L/S59P/K95Q/N150D/S230A/G242S/K246R/S251A/A291S/H322R/V343A/M358V/Y370F/K390E/L463V, form open) above, with S94G, L144M, L334V counted along it
T1 sequence (P37967 whole entry K23L/S59P/K95Q/N150D/S230A/G242S/K246R/S251A/A291S/H322R/V343A/Y370F/K390E/L463V, form open): as the sequence (P37967 whole entry K23L/S59P/K95Q/N150D/S230A/G242S/K246R/S251A/A291S/H322R/V343A/M358V/Y370F/K390E/L463V, form open) above, with V358M counted along it
Chain of Bacillus subtilis para-nitrobenzyl esterase (pNB esterase), wild type 0-WT, SEQ. ID. NO. 2 (P37967 whole entry K23L/S59P/K95Q/N150D/S230A/G242S/K246R/S251A/A291S/V343A/K390E/L463V): as the sequence (P37967 whole entry K23L/S59P/K95Q/N150D/S230A/G242S/K246R/S251A/A291S/H322R/V343A/M358V/Y370F/K390E/L463V, form open) above, with R322H, V358M, F370Y counted along it
Chain of Bacillus subtilis para-nitrobenzyl esterase variant 4-54B9 (3-10C4 plus Leu 334 Ser and one more substitution), SEQ. ID. NO. 14 (P37967 other isoform, or with tags, fused parts or gaps with the stated changes, form open): as the sequence (P37967 whole entry K23L/S59P/K95Q/N150D/S230A/G242S/K246R/S251A/A291S/H322R/V343A/M358V/Y370F/K390E/L463V, form open) above, with L144M, K267R, L334S counted along it
Chain of Bacillus subtilis para-nitrobenzyl esterase variant 3-10C4 (2-19E10 plus Leu 144 Met), SEQ. ID. NO. 8 (P37967 other isoform, or with tags, fused parts or gaps with the stated changes, form open): as the sequence (P37967 whole entry K23L/S59P/K95Q/N150D/S230A/G242S/K246R/S251A/A291S/H322R/V343A/M358V/Y370F/K390E/L463V, form open) above, with L144M counted along it
Chain of Bacillus subtilis para-nitrobenzyl esterase variant 4-38B9 (3-10C4 plus Ile 60 Val), SEQ. ID. NO. 10 (P37967 other isoform, or with tags, fused parts or gaps with the stated changes, form open): as the sequence (P37967 whole entry K23L/S59P/K95Q/N150D/S230A/G242S/K246R/S251A/A291S/H322R/V343A/M358V/Y370F/K390E/L463V, form open) above, with I60V, L144M counted along it

Which results are given for NC1C(=O)N2C(C(=O)Oc3ccc([N+](=O)[O-])cc3)=C(Cl)CCC12 (stereo not drawn) [p-nitrophenyl loracarbef nucleus]?
kcat (p-nitrophenyl loracarbef nucleus) [1]: 0.08; Km ([1]; read-out: Km (p-nitrophenyl loracarbef nucleus)): 30 µM; kcat (p-nitrophenyl loracarbef nucleus) ([2]; 15% DMF): 0.07; Km [2, 9]: 1840 µM; kcat (p-nitrophenyl loracarbef nucleus) ([2]; 30% DMF): 0.021; Km [2, 10]: 6050 µM; kcat (p-nitrophenyl loracarbef nucleus) ([3]; 0% DMF): 0.39; Km [3, 11]: 60 µM; kcat (p-nitrophenyl loracarbef nucleus) ([3]; 15% DMF): 0.25; Km [3, 9]: 1410 µM; kcat (p-nitrophenyl loracarbef nucleus) ([3]; 30% DMF): 0.067; Km [3, 10]: 5680 µM; kcat (p-nitrophenyl loracarbef nucleus) ([4]; 0% DMF): 1.44; Km [4, 11]: 120 µM; kcat (p-nitrophenyl loracarbef nucleus) ([4]; 15% DMF): 0.93; Km [4, 9]: 1270 µM; kcat (p-nitrophenyl loracarbef nucleus) ([4]; 30% DMF): 0.141; Km [4, 10]: 2920 µM; kcat (p-nitrophenyl loracarbef nucleus) ([5]; 0% DMF): 0.14; Km [5, 11]: 70 µM; kcat (p-nitrophenyl loracarbef nucleus) ([5]; 15% DMF): 0.10; Km [5, 9]: 2360 µM; kcat (p-nitrophenyl loracarbef nucleus) ([5]; 30% DMF): 0.024; Km [5, 10]: 7550 µM; kcat (p-nitrophenyl loracarbef nucleus) ([6]; 0% DMF): 0.35; Km [6, 11]: 110 µM; kcat (p-nitrophenyl loracarbef nucleus) ([6]; 15% DMF): 0.21; Km [6, 9]: 1770 µM; kcat (p-nitrophenyl loracarbef nucleus) ([6]; 30% DMF): 0.044; Km [6, 10]: 5180 µM; kcat (p-nitrophenyl loracarbef nucleus) ([7]; 0% DMF): 0.67; Km [7, 11]: 80 µM; kcat (p-nitrophenyl loracarbef nucleus) ([7]; 15% DMF): 0.40; Km [7, 9]: 1270 µM; kcat (p-nitrophenyl loracarbef nucleus) ([7]; 30% DMF): 0.094; Km [7, 10]: 5090 µM; kcat (p-nitrophenyl loracarbef nucleus) ([8]; 0% DMF): 0.25; Km [8, 11]: 90 µM; kcat (p-nitrophenyl loracarbef nucleus) ([8]; 15% DMF): 0.12; Km [8, 9]: 1500 µM; kcat (p-nitrophenyl loracarbef nucleus) ([8]; 30% DMF): 0.023; Km [8, 10]: 4670 µM

How did the “kcat (p-nitrobenzyl loracarbef nucleus)” value [1] turn out when NC1C(=O)N2C(C(=O)OCc3ccc([N+](=O)[O-])cc3)=C(Cl)CCC12 (stereo not drawn) [p-nitrobenzyl loracarbef nucleus] was run?
Its value is 1.94.

And the Km ([1]; read-out: Km (p-nitrobenzyl loracarbef nucleus))?
The Km was 40 µM.

What about the “kcat (p-nitrobenzyl loracarbef nucleus)” value ([2]; 15% DMF) of the same compound?
The value was 0.69.

What about the Km [2, 12] of the same compound?
Its Km is 850 µM.

What about the “kcat (p-nitrobenzyl loracarbef nucleus)” value ([3]; 0% DMF) of the same compound?
The value was 8.51.

And the Km [3, 13]?
Its Km is 40 µM.

And the “kcat (p-nitrobenzyl loracarbef nucleus)” value ([3]; 15% DMF)?
The value was 1.89.

And the Km [3, 12]?
The Km was 310 µM.

And the “kcat (p-nitrobenzyl loracarbef nucleus)” value ([4]; 0% DMF)?
Its value is 18.96.

What about the Km [4, 13] of the same compound?
The Km was 50 µM.

And the “kcat (p-nitrobenzyl loracarbef nucleus)” value ([4]; 15% DMF)?
The value was 6.84.

And the Km [4, 12]?
The Km was 460 µM.

What about the “KM change from wild type to 4-54B9” value [4, 14] of the same compound?
The value was “decreases by less than a factor of two”.

What about the “kcat increase from wild type to 4-54B9” value [4, 14] of the same compound?
The value was “more than 9 fold”.

What about the “kcat (p-nitrobenzyl loracarbef nucleus)” value ([5]; 0% DMF) of the same compound?
Its value is 1.64.

And the Km [5, 13]?
Its Km is 40 µM.

What about the “kcat (p-nitrobenzyl loracarbef nucleus)” value ([5]; 15% DMF) of the same compound?
Its value is 0.54.

And the Km [5, 12]?
Its Km is 880 µM.

And the “kcat (p-nitrobenzyl loracarbef nucleus)” value ([6]; 0% DMF)?
The value was 6.53.

And the Km [6, 13]?
The Km was 70 µM.

And the “kcat (p-nitrobenzyl loracarbef nucleus)” value ([6]; 15% DMF)?
Its value is 1.62.

What about the Km [6, 12] of the same compound?
Its Km is 400 µM.

What about the “kcat (p-nitrobenzyl loracarbef nucleus)” value ([7]; 0% DMF) of the same compound?
The value was 9.13.

What about the Km [7, 13] of the same compound?
Its Km is 30 µM.

What about the “kcat (p-nitrobenzyl loracarbef nucleus)” value ([7]; 15% DMF) of the same compound?
Its value is 3.02.

And the Km [7, 12]?
The Km was 370 µM.

What about the “kcat (p-nitrobenzyl loracarbef nucleus)” value ([8]; 0% DMF) of the same compound?
The value was 4.59.

What about the Km [8, 13] of the same compound?
The Km was 40 µM.

And the “kcat (p-nitrobenzyl loracarbef nucleus)” value ([8]; 15% DMF)?
The value was 1.81.

And the Km [8, 12]?
Its Km is 870 µM.
